Measured values: patent publication US12128028B2, “Heterocyclic sulfonamide derivatives and pharmaceutical uses thereof” (METRION BIOSCIENCES LIMITED, priority 2018, dated 2024)

The compounds below were run against human Kv1.3 (Homo sapiens (Human), UniProt P22001) (assay: Kv1.3 potency evaluation, automated patch clamp electrophysiology (QPatch HT) in CHO-Kv1.3 cells). Settings: whole-cell QPatch HT, % inhibition of charge, step to +30 mV, four concentrations, N≥3 cells, read-out: hKv1.3 IC50.
Sequence of human Kv1.3 (P22001 whole entry): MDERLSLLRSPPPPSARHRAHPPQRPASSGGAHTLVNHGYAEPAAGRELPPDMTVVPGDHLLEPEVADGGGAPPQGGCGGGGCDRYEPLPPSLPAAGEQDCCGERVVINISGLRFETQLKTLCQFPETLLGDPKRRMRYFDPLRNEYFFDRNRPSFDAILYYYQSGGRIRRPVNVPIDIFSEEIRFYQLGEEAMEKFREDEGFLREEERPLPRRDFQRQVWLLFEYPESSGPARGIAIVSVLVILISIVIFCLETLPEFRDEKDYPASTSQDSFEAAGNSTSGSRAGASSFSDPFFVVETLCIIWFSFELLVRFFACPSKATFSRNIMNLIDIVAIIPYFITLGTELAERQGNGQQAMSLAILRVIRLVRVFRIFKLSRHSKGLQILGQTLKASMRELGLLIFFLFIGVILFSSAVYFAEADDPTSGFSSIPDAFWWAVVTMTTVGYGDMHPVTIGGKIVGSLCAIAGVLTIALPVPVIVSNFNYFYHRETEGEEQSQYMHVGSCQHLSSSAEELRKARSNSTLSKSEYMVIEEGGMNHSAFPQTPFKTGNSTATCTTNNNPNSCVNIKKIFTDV
Format: cell-based
Description: Biological Assays Kv1.3 Potency Evaluation Electrophysiology Recordings
A proprietary Chinese hamster ovary cell line stably expressing exogenous human a-subunits of Kv1.3 (CHO-Kv1.3) channel, validated biophysically and pharmacologically in house, was used to assess the ability of test compounds to block Kv1.3 currents using automated patch clamp electrophysiology. The QPatch HT system (Sophion Bioscience A/S, Denmark) was used with the conventional whole-cell configuration. This system is an automated, chip-based planar patch clamp device allowing for up to 48 parallel independent experiments in one experimental assay run. Cells are added to each well and drawn by suction onto a small aperture to obtain a Gigaohm seal between the cell membrane and treated silicon surface, and whole-cell recordings initiated after access is achieved by suction and/or voltage pulses. The QPatch HT uses static perfusion, whereby a small volume of recording solution or drug is added to a reservoir on the chip and the solution perfuses across the cell through quartz-lined microfluidic channels; this solution is removed by capillary action when the next sample application is made.
CHO-Kv1.3 cells were prepared for experiments by dissociation from T175 cell culture flasks using trypsin-EDTA (0.05%), cells were kept in serum free media in the cell hotel on board the QPatch HT. These cells were sampled, washed and re-suspended in extracellular recording solution by the QPatch HT immediately before application to the recording well site on the chip. Experiments were performed using the following solutions; extracellular solution contained (in mM); 150 NaCl, 10 KCl, 1 MgCl2, 3 CaCl2), 10 Glucose and 10 HEPES (pH 7.4, NaOH) and intracellular solution contained (in mM); 20 KCl, 120 KF, 10 HEPES, 10 EGTA, 5 ATP (pH 7.2, KOH).
The potency (Inhibitory Concentration 50%, IC50) of synthesized compounds against Kv1.3 was determined from concentration-response relationships established by cumulatively applying four escalating concentrations of test compound to an individual cell and a minimum of N≥3 individual cells of data per compound were used to generate the IC50 value.
On achieving the whole-cell configuration; two additions of vehicle (0.1-0.3% DMSO v/v) were applied to each cell in two bolus additions with a two minute recording period between each addition (four minutes total recording time). Following the vehicle period, four concentrations of test sample were applied as two bolus additions per test concentration at two minute intervals, and the effects on current measured during the four minute recording period.
Currents were elicited using a single step voltage protocol. From a holding potential of −80 mV the cell is depolarised to +30 mV (500 ms) resulting in an outward current before finally repolarising the cell by returning to the holding potential. The command voltage was applied at a frequency of 0.067 Hz throughout the duration of the experiment. For each sweep of the voltage protocol membrane current and the passive properties of the individual cells were recorded by QPatch assay software (version 5.2). Cursors were placed to calculate the charge (integral of the current recorded during cursor interval) between 2-490 ms (0.4-99%) of the 500 ms step to +30 mV.
The % inhibition of charge for each test concentration application period was calculated as the reduction in mean charge at the end of each concentration test period relative to the charge value measured at the end of the control (i.e. vehicle) period. Sigmoidal concentration response curves (four parameter logistic curve) were fitted to the % inhibition rom which the IC50 was determined. Curve fits were constrained at 0 and 100%.
For C[C@]1(C(=O)N2CC3(CCC3)C2)CN=C(C23CC(N(Cc4ccc(C(F)(F)F)cc4)S(=O)(=O)c4ccc(F)cc4)(C2)C3)N1 (mixture of isomers) [Example 253], the IC50 was 323 nM. For CC(F)(F)CCS(=O)(=O)N(Cc1ccc(Cl)c(F)c1)C12CC(C3=NC(C)(C)[C@H](C(=O)NCCC(F)(F)F)N3)(C1)C2 (mixture of isomers) [Example 111], the IC50 was 72 nM. CC(C)(F)CNC(=O)[C@@H]1NC(C23CC(N(Cc4ccc(Cl)c(F)c4)S(=O)(=O)c4ccccc4)(C2)C3)=NC1(C)C (mixture of isomers) [Example 35] showed an IC50 of 44 nM. With CC1(C)N=C(C23CC(N(Cc4ccc(Cl)c(Cl)c4)S(=O)(=O)c4ccccc4)(C2)C3)N[C@H]1C(=O)NC1CC1C(F)(F)F (mixture of isomers) [Example 189] the IC50 was 112 nM. Compound CN(CC1CC(F)(F)C1)C(=O)[C@@H]1NC(C23CC(N(Cc4ccc(Cl)c(Cl)c4)S(=O)(=O)c4ccccc4)(C2)C3)=NC1(C)C (mixture of isomers) [Example 113] has an IC50 of 72 nM. CC1(C)N=C(C23CC(N(Cc4ccc(Cl)c(Cl)c4)S(=O)(=O)CCCF)(C2)C3)N[C@H]1C(=O)NCC1CC(F)(F)C1 (mixture of isomers) [Example 132] gave an IC50 of 78 nM. CC1(C)N=C(C23CC(N(Cc4ccc(Cl)c(F)c4)S(=O)(=O)c4ccccc4)(C2)C3)N[C@H]1C(=O)N1CCC2(C1)CC2(F)F (mixture of isomers) [Example 129] showed an IC50 of 78 nM. Compound CC1(C)N=C(C23CC(N(Cc4ccc(Cl)c(F)c4)S(=O)(=O)c4ccccc4)(C2)C3)N[C@H]1C(=O)NCC1CC1(F)F (mixture of isomers) [Example 11] has an IC50 of 28 nM. Work on CC(C)NC(=O)[C@@]1(C)CN=C(C23CC(N(Cc4ccc(C(F)(F)F)cc4)S(=O)(=O)c4ccccc4)(C2)C3)N1 (mixture of isomers) [Example 254] yielded an IC50 of 333 nM. CC1(C)N=C(C23CC(N(Cc4ccc(C(F)(F)F)cc4)S(=O)(=O)c4ccc(F)cc4)(C2)C3)N[C@H]1C(=O)NCCC(F)(F)F (mixture of isomers) [Example 217] was tested, and the IC50 was 167 nM. C[C@]1(C(=O)NCC(F)(F)F)CN=C(C23CC(N(Cc4ccc(C(F)(F)F)cc4)S(=O)(=O)c4ccc(F)cc4)(C2)C3)N1 (mixture of isomers) [Example 260] gave an IC50 of 370 nM. For CC(NC(=O)[C@@]1(C)CN=C(C23CC(N(Cc4ccc(C(F)(F)F)cc4)S(=O)(=O)c4ccc(F)cc4)(C2)C3)N1)C1CCC1 (mixture of isomers) [Example 238], the IC50 was 221 nM. In the case of CC1(C)N=C(C23CC(N(Cc4ccc(Cl)c(F)c4)S(=O)(=O)c4ccccc4)(C2)C3)N[C@H]1C(=O)N1CC2CCC(C1)C2(F)F (mixture of isomers) [Example 88], the IC50 is reported as 63 nM. Work on CC1(C)N=C(C23CC(N(Cc4ccc(Cl)cc4)S(=O)(=O)c4cccc(F)c4)(C2)C3)N[C@H]1C(=O)NCCC(F)(F)F (mixture of isomers) [Example 59] yielded an IC50 of 51 nM. With C[C@]1(C(=O)NCCC(F)(F)F)CN=C(C23CC(N(Cc4ccc(C(F)(F)F)cc4)S(=O)(=O)c4ccc(F)cc4)(C2)C3)N1 (mixture of isomers) [Example 202] the IC50 was 134 nM. In the case of CCCCCS(=O)(=O)N(Cc1ccc(Cl)cc1)C12CC(C3=NC(C)(C)[C@H](C(=O)NCCC(F)(F)F)N3)(C1)C2 (mixture of isomers) [Example 80], the IC50 is reported as 61 nM. For CC1(C)N=C(C23CC(N(Cc4ccc(Cl)c(F)c4)S(=O)(=O)c4ccccc4)(C2)C3)N[C@H]1C(=O)N(CCC(F)(F)F)C1CC1 (mixture of isomers) [Example 119], the IC50 was 74 nM. For CC1(C)N=C(C23CC(N(Cc4ccc(Cl)cc4)S(=O)(=O)c4cccs4)(C2)C3)N[C@H]1C(=O)NCCC(F)(F)F (mixture of isomers) [Example 18], the IC50 was 36 nM. Work on CC1(C)N=C(C23CC(N(Cc4ccc(Cl)cc4)S(=O)(=O)c4ccccc4[N+](=O)[O-])(C2)C3)N[C@H]1C(=O)NCCC(F)(F)F (mixture of isomers) [Example 191] yielded an IC50 of 114 nM. Compound CN(CCC(F)(F)F)C(=O)[C@@H]1NC(C23CC(N(Cc4ccc(Cl)c(Cl)c4)S(=O)(=O)CCC(F)F)(C2)C3)=NC1(C)C (mixture of isomers) [Example 207] has an IC50 of 137 nM. Compound CC1(C)N=C(C23CC(N(Cc4ccc(Cl)c(F)c4)S(=O)(=O)c4ccccc4)(C2)C3)N[C@H]1C(=O)NC[C@H]1CC1(F)F (mixture of isomers) [Example 22] has an IC50 of 39 nM. CC1(C)N=C(C23CC(N(Cc4ccc(Cl)c(F)c4)S(=O)(=O)c4ccccc4)(C2)C3)N[C@H]1C(=O)NC(C1CC1)C1CC1 (mixture of isomers) [Example 168] showed an IC50 of 99 nM. Compound CN(CCC(F)(F)F)C(=O)[C@@H]1NC(C23CC(N(Cc4ccc(Cl)c(Cl)c4)S(=O)(=O)c4ccccc4)(C2)C3)=NC1(C)C (mixture of isomers) [Example 147] has an IC50 of 88 nM. In the case of CC1N=C(C23CC(N(Cc4ccc(C(F)(F)F)cc4)S(=O)(=O)c4ccc(F)cc4)(C2)C3)N[C@@]1(C)C(=O)NCC1CCC1 (mixture of isomers) [Example 245], the IC50 is reported as 253 nM. In the case of CC1(C)N=C(C23CC(N(Cc4ccc(Cl)c(F)c4)S(=O)(=O)c4ccccc4)(C2)C3)N[C@H]1C(=O)NCCCC(F)(F)F (mixture of isomers) [Example 108], the IC50 is reported as 71 nM. Compound CC1N=C(C23CC(N(Cc4ccc(C(F)(F)F)cc4)S(=O)(=O)c4ccc(F)cc4)(C2)C3)N[C@@]1(C)C(=O)NCC1CCC1 (mixture of isomers) [Example 184] has an IC50 of 109 nM. Compound CC1(C)N=C(C23CC(N(Cc4ccc(C(F)(F)F)cc4)S(=O)(=O)c4ccc(F)cc4)(C2)C3)NC1C(=O)NCC1CCC1 (stereo not drawn) [Example 192] has an IC50 of 115 nM. With CC1(C)N=C(C23CC(N(Cc4ccc(Cl)c(F)c4)S(=O)(=O)c4ccccc4)(C2)C3)N[C@H]1C(=O)NCCC1(C(F)(F)F)CC1 (mixture of isomers) [Example 149] the IC50 was 89 nM. CC1(C)N=C(C23CC(N(Cc4ccc(Cl)cc4)S(=O)(=O)c4ccccc4)(C2)C3)N[C@H]1C(=O)NC1CC(C(F)F)C1 (mixture of isomers) [Example 101] showed an IC50 of 67 nM. In the case of CC1(C)N=C(C23CC(N(Cc4ccc(C(F)(F)F)cc4)S(=O)(=O)c4ccc(F)cc4)(C2)C3)NC1C(=O)N1CCC(F)(F)CC1 (stereo not drawn) [Example 236], the IC50 is reported as 213 nM. Compound Cc1ccccc1S(=O)(=O)N(Cc1ccc(Cl)cc1)C12CC(C3=NC(C)(C)[C@H](C(=O)NCCC(F)(F)F)N3)(C1)C2 (mixture of isomers) [Example 219] has an IC50 of 168 nM. With Cn1ccc(S(=O)(=O)N(Cc2ccc(Cl)cc2)C23CC(C4=NC(C)(C)[C@H](C(=O)NCCC(F)(F)F)N4)(C2)C3)n1 (mixture of isomers) [Example 241] the IC50 was 243 nM. CC1(C)CCN(C(=O)[C@@]2(C)CN=C(C34CC(N(Cc5ccc(C(F)(F)F)cc5)S(=O)(=O)c5ccc(F)cc5)(C3)C4)N2)C1 (mixture of isomers) [Example 264] was tested, and the IC50 was 404 nM. CC1(C)N=C(C23CC(N(Cc4ccc(Cl)cc4)S(=O)(=O)c4ccn(C5CC5)n4)(C2)C3)N[C@H]1C(=O)NCCC(F)(F)F (mixture of isomers) [Example 90] was tested, and the IC50 was 64 nM. CC(C)NC(=O)[C@H]1NC(C23CC(N(Cc4ccc(Cl)c(F)c4)S(=O)(=O)c4ccccc4)(C2)C3)=NC1(C)C (mixture of isomers) [Example 240] gave an IC50 of 235 nM. Work on CC1(C)N=C(C23CC(N(Cc4ccc(Cl)c(F)c4)S(=O)(=O)c4ccccc4)(C2)C3)N[C@H]1C(=O)N1CCCC(F)(F)C1 (mixture of isomers) [Example 98] yielded an IC50 of 66 nM. With C[C@]1(C(=O)NCCC2CCC2)CN=C(C23CC(N(Cc4ccc(C(F)(F)F)cc4)S(=O)(=O)c4ccc(F)cc4)(C2)C3)N1 (mixture of isomers) [Example 278] the IC50 was 595 nM. In the case of CC(F)(F)CCS(=O)(=O)N(Cc1ccc(Cl)c(Cl)c1)C12CC(C3=NC(C)(C)[C@H](C(=O)NC45CC(C4)C5)N3)(C1)C2 (mixture of isomers) [Example 74], the IC50 is reported as 58 nM. Compound CC1(C)N=C(C23CC(N(Cc4ccc(Cl)c(F)c4)S(=O)(=O)c4ccccc4)(C2)C3)N[C@H]1C(=O)NCC(O)C(F)(F)F (mixture of isomers) [Example 233] has an IC50 of 209 nM.
